# Values quoted from earlier work in patent US20080139531A1, “USE OF CONNECTIVE TISSUE MAST CELL STABILIZERS TO FACILITATE OCULAR SURFACE RE-EPITHELIZATION AND WOUND REPAIR” (ALCON MANUFACTURING LTD., priority 2006, published 2008).
# Tested on: human conjunctival mast cells
# Conditions: qualitative statement citing Yanni et al., 1997
row,Compound,inhibition of histamine release from human conjunctival mast cells
1,"CN(C)CCC=C1c2ccccc2COc2ccc(CC(=O)O)cc21 [olopatadine, 11-(3-dimethylaminopropylidene)-6,11-dihydrodibenz[b,e]oxepin-2-acetic acid]",inhibits histamine release
2,Cc1cccn2c(=O)c(-c3nnn[nH]3)cnc12 [pemirolast],"Unlike cromolyn and pemirolast, olopatadine inhibits histamine release"
